Source: ChEMBL document CHEMBL3390848, “Affinity selection and sequence-activity relationships of HIV-1 membrane fusion inhibitors directed at the drug-resistant variants” (Medchemcomm, 2010)
Residues, ends and D or L forms follow the SMILES beside them.

Key:
[1] = system: Human immunodeficiency virus 1; assay: Thermal stability of HIV1 envelope glycoprotein gp41 His-tagged N-terminal heptad repeat N36 N43D mutant-drug complex assessed as thermal unfolding transition state by measuring molar ellipticity at 4 to 90 degC by circular dichroic spectra analysis
[2] = system: Human immunodeficiency virus 1; assay: Binding affinity to HIV1 His-tagged N-terminal heptad repeat of envelope glycoprotein gp41 assessed as recovery of N36-drug complex after 2 hrs by LC-MS analysis; set-up: concentration or dose not given beside the values
[3] = system: Human immunodeficiency virus 1; assay: Antiviral activity against HIV1 NL4-3 harboring gp41 D36G mutant infected in human HeLa cells expressing CD4-LTR-beta-gal assessed as inhibition of viral replication after 48 hrs by MAGI assay; format: functional, organism-based
[4] = system: Human immunodeficiency virus 1; assay: Binding affinity to HIV1 His-tagged N-terminal heptad repeat of envelope glycoprotein gp41 assessed as recovery of N36-drug complex at 0.6 uM after 2 hrs by LC-MS analysis
[5] = system: Human immunodeficiency virus 1; assay: Binding affinity to HIV1 His-tagged N-terminal heptad repeat of envelope glycoprotein gp41 assessed as recovery of N36-drug complex at 10 uM after 2 hrs by LC-MS analysis
[6] = system: Human immunodeficiency virus 1; assay: Binding affinity to HIV1 His-tagged N-terminal heptad repeat of envelope glycoprotein gp41 assessed as recovery of N36-drug complex at 6 uM after 2 hrs by LC-MS analysis
[7] = system: Human immunodeficiency virus 1; assay: Binding affinity to HIV1 His-tagged N-terminal heptad repeat of envelope glycoprotein gp41 assessed as recovery of N36-drug complex at 1 uM after 2 hrs by LC-MS analysis
[8] = system: Envelope glycoprotein gp160 (Human immunodeficiency virus 1), Q72502 [V38A]; assay: Thermal stability of HIV1 envelope glycoprotein gp41 His-tagged N-terminal heptad repeat N36 V38A mutant-drug complex assessed as thermal unfolding transition state by measuring molar ellipticity at 4 to 90 degC by circular dichroic spectra analysis
[9] = system: Human immunodeficiency virus 1; assay: Thermal stability of HIV1 envelope glycoprotein gp41 His-tagged N-terminal heptad repeat N36-drug complex assessed as thermal unfolding transition state by measuring molar ellipticity at 4 to 90 degC by circular dichroic spectra analysis
[10] = system: Human immunodeficiency virus 1; assay: Binding affinity to HIV1 His-tagged N-terminal heptad repeat of envelope glycoprotein gp41 assessed as recovery of N36 N43D mutant-drug complex after 2 hrs by LC-MS analysis; set-up: concentration or dose not given beside the values
[11] = system: Envelope glycoprotein gp160 (Human immunodeficiency virus 1), Q72502 [V38A]; assay: Binding affinity to HIV1 His-tagged N-terminal heptad repeat of envelope glycoprotein gp41 assessed as recovery of N36 V38A mutant-drug complex after 2 hrs by LC-MS analysis; set-up: concentration or dose not given beside the values

SMILES	Tm [1]	Activity [2]	EC50 [3]	Activity [4]	Activity [5]	Activity [6]	Activity [7]	Tm [8]	Tm [9]	Activity [10]	Activity [11]
CC[C@H](C)[C@H](NC(=O)[C@H](CC(C)C)NC(=O)[C@H](CCC(=O)O)NC(=O)[C@H](CCC(=O)O)NC(=O)[C@@H](NC(=O)[C@H](CCCCN)NC(=O)[C@H](CCCCN)NC(=O)[C@@H](NC(=O)[C@H](Cc1ccc(O)cc1)NC(=O)[C@H](CCC(=O)O)NC(=O)[C@H](CCC(=O)O)NC(=O)[C@@H](NC(=O)[C@H](CCCCN)NC(=O)[C@H](CCCCN)NC(=O)[C@H](CC(=O)O)NC(=O)[C@H](Cc1c[nH]c2ccccc12)NC(=O)[C@H](CCC(=O)O)NC(=O)[C@H](CCC(=O)O)NC(=O)[C@H](Cc1c[nH]c2ccccc12)NC(C)=O)[C@@H](C)CC)[C@@H](C)O)[C@@H](C)CC)C(=O)N[C@@H](CCCCN)C(=O)N[C@@H](CCCCN)C(=O)N[C@@H](CO)C(=O)N[C@@H](CCC(=O)O)C(=O)N[C@@H](CCC(=O)O)C(=O)N[C@@H](CCC(N)=O)C(=O)N[C@@H](CCC(N)=O)C(=O)N[C@@H](CCCCN)C(=O)N[C@@H](CCCCN)C(=O)N[C@@H](CC(N)=O)C(=O)N[C@@H](CCC(=O)O)C(=O)N[C@@H](CCC(=O)O)C(=O)N[C@@H](CCC(=O)O)C(=O)N[C@@H](CC(C)C)C(=O)N[C@@H](CCCCN)C(=O)N[C@@H](CCCCN)C(N)=O (Ac-WEEWDKKIEEYTKKIEELIKKSEEQQKKNEEELKK-NH2)	69.9 °C	10.1%	1 nM	5.8%	22.8%	19.2%	11.5%	72.6 °C	81.6 °C	10.9%	11.8%
CC[C@H](C)[C@H](NC(=O)[C@H](CCCCN)NC(=O)[C@H](CCCCN)NC(=O)[C@H](CC(=O)O)NC(=O)[C@H](Cc1c[nH]c2ccccc12)NC(=O)[C@H](CCC(=O)O)NC(=O)[C@H](CCC(=O)O)NC(=O)[C@H](Cc1c[nH]c2ccccc12)NC(C)=O)C(=O)N[C@@H](CCC(=O)O)C(=O)N[C@@H](CCC(=O)O)C(=O)N[C@@H](Cc1ccc(O)cc1)C(=O)N[C@H](C(=O)N[C@@H](CCCCN)C(=O)N[C@@H](CCCCN)C(=O)N[C@H](C(=O)N[C@@H](CCC(=O)O)C(=O)N[C@@H](CCC(=O)O)C(=O)N[C@@H](CC(C)C)C(=O)N[C@H](C(=O)N[C@@H](CCCCN)C(=O)N[C@@H](CCCCN)C(=O)N[C@H](C(=O)N[C@@H](CCC(=O)O)C(=O)N[C@@H](CCC(=O)O)C(=O)N[C@@H](CCC(N)=O)C(=O)N[C@@H](CCC(N)=O)C(=O)N[C@@H](CCCCN)C(=O)N[C@@H](CCCCN)C(=O)N[C@@H](CC(N)=O)C(=O)N[C@@H](CCC(=O)O)C(=O)N[C@@H](CCC(=O)O)C(=O)N[C@@H](CCC(=O)O)C(=O)N[C@@H](CC(C)C)C(=O)N[C@@H](CCCCN)C(=O)N[C@@H](CCCCN)C(N)=O)[C@@H](C)O)[C@@H](C)CC)[C@@H](C)CC)[C@@H](C)O (Ac-WEEWDKKIEEYTKKIEELIKKTEEQQKKNEEELKK-NH2)	67.5 °C	–	0.8 nM	5.7%	9%	12.8%	11.7%	70.4 °C	79.7 °C	9.4%	10.8%
CC[C@H](C)[C@H](NC(=O)[C@H](CC(C)C)NC(=O)[C@H](CCC(=O)O)NC(=O)[C@H](CCC(=O)O)NC(=O)[C@@H](NC(=O)[C@H](CCCCN)NC(=O)[C@H](CCCCN)NC(=O)[C@@H](NC(=O)[C@H](Cc1ccc(O)cc1)NC(=O)[C@H](CCC(=O)O)NC(=O)[C@H](CCC(=O)O)NC(=O)[C@@H](NC(=O)[C@H](CCCCN)NC(=O)[C@H](CCCCN)NC(=O)[C@H](CC(=O)O)NC(=O)[C@H](Cc1c[nH]c2ccccc12)NC(=O)[C@H](CCC(=O)O)NC(=O)[C@H](CCC(=O)O)NC(=O)[C@H](Cc1c[nH]c2ccccc12)NC(C)=O)[C@@H](C)CC)[C@@H](C)O)[C@@H](C)CC)C(=O)N[C@@H](CCCCN)C(=O)N[C@@H](CCCCN)C(=O)N[C@@H](Cc1c[nH]c2ccccc12)C(=O)N[C@@H](CCC(=O)O)C(=O)N[C@@H](CCC(=O)O)C(=O)N[C@@H](CCC(N)=O)C(=O)N[C@@H](CCC(N)=O)C(=O)N[C@@H](CCCCN)C(=O)N[C@@H](CCCCN)C(=O)N[C@@H](CC(N)=O)C(=O)N[C@@H](CCC(=O)O)C(=O)N[C@@H](CCC(=O)O)C(=O)N[C@@H](CCC(=O)O)C(=O)N[C@@H](CC(C)C)C(=O)N[C@@H](CCCCN)C(=O)N[C@@H](CCCCN)C(N)=O (Ac-WEEWDKKIEEYTKKIEELIKKWEEQQKKNEEELKK-NH2)	66 °C	–	3.1 nM	6.2%	0.5%	0.3%	0.9%	64.6 °C	66.4 °C	2.4%	1%
